Source: patent US20070041899A1, “Radiolabelled substrates” (priority 2003, published 2007)

How the values were obtained:
P-glycoprotein = P-glycoprotein (Sus scrofa, UniProt K7GMM7); settings: pig
From the text: (§1) The animals (pig, Yorkshire Iandrace, 37.5 kg, n=2) were scanned under terminal aneasthesia (ketamine induced isoflurane aneasthesia) on different days. For both animals an arterial cannula was inserted in one of the femoral arteries.

[1] = Rate of metabolism of [^11C]loperamide (arterial blood sampling) in pig
From the text: as §1

Sequence of P-glycoprotein (K7GMM7 1-1248): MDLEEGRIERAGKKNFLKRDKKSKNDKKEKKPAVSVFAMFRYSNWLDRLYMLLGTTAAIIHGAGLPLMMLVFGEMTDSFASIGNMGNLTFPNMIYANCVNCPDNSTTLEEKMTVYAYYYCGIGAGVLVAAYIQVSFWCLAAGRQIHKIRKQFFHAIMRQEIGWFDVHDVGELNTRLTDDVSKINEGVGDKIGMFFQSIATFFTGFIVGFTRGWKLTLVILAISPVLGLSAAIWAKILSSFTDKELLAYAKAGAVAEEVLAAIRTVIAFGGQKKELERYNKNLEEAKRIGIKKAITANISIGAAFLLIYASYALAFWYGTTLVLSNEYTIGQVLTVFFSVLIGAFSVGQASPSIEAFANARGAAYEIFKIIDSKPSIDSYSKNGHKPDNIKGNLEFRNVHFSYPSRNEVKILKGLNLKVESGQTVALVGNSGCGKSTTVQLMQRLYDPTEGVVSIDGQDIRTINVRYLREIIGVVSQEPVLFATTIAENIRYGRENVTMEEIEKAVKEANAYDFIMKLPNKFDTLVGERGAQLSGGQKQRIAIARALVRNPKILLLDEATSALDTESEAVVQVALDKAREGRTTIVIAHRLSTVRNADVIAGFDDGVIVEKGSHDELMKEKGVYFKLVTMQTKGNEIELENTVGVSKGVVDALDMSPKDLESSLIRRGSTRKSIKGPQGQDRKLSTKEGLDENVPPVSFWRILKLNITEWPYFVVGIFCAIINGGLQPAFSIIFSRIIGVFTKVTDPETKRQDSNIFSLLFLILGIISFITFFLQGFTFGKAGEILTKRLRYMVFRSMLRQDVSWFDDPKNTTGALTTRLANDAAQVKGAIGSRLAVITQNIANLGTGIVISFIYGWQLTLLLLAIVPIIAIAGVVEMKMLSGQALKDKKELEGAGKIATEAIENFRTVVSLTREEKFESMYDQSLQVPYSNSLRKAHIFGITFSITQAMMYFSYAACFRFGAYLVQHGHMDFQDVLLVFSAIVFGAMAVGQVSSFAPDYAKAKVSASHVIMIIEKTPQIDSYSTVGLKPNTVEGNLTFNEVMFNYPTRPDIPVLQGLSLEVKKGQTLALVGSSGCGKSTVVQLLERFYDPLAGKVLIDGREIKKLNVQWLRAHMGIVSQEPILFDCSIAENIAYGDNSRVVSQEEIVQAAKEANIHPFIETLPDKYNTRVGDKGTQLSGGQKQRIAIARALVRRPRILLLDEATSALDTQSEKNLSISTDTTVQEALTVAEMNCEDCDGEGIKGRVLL

## CN([11CH3])C(=O)C(CCN1CCC(O)(c2ccc(Cl)cc2)CC1)(c1ccccc1)c1ccccc1 [[^11C]loperamide, ^11C—N-methyl-(4-chlorophenyl)+hydroxy-N,N-dimethyl-alpha,alpha-diphenyl-1-piperidinebutyramide]
P-glycoprotein; at a dose of 40-50 mg/kg Cyclosporin A i.v. 30 min prior
  Maximum increase of CNS penetration for the brain as a whole: 7 fold
P-glycoprotein; i.v. 1 min bolus, baseline conditions, PET
  % injected dose/L (CNS penetration): below 1%
P-glycoprotein; i.v. various doses of cyclosporin A 30 min prior to injection
  radioactive signal in the brain as measured with PET scanning: dose dependent increase
[1]; at doses of CsA >10 mg/kg
  rate of metabolism: parent at 60 min post administration: approx. 80 % parent
[1]; without CsA >10 mg/kg (before decrease)
  rate of metabolism: parent at 60 min post administration: approx. 50 % parent
